From the CheMixHub ionic liquid set

Test: xn = mol fraction of the nth substance listed

CCCC[N+]1(C)CCCC1.F[B-](F)(F)F + CC1COC(=O)O1 + CCCC[N+]1(C)CCCC1.O=S(=O)([N-]S(=O)(=O)C(F)(F)F)C(F)(F)F
293.15 K, 100 kPa, x2 = 0.4706, x3 = 0.05882
Settings | electrical conductivity [S/m] | viscosity [mPa·s]
– | 0.96 | 7.6

CC(=O)[O-].CCC[N+]1(C)CCN(C)CC1 + CC#N
Settings | electrical conductivity [S/m]
298 K, 101 kPa, x2 = 0.791 | 1.76

CCO + CC(=O)[O-].CC[n+]1ccn(C)c1
101 kPa, x1 = 1
Settings | viscosity [mPa·s]
318.15 K | 0.755
338.15 K | 0.543

CC(=O)[O-].CC[NH2+]CC + CC(C)=O
298.15 K, 101 kPa
Settings | electrical conductivity [S/m] | viscosity [mPa·s]
x1 = 0.0095 | 0.001 | –
x1 = 0.0238 | 0.033 | –
x1 = 0.0523 | 0.085 | –
x1 = 0.0729 | 0.131 | –
x1 = 0.098 | – | 0.734
x1 = 0.0983 | 0.171 | –
x1 = 0.194 | – | 1.092
x1 = 0.1981 | 0.328 | –
x1 = 0.2979 | 0.427 | –
x1 = 0.299 | – | 2.01
x1 = 0.401 | 0.479 | –
x1 = 0.402 | – | 3.5
x1 = 0.4945 | 0.505 | –
x1 = 0.5 | – | 5.74
x1 = 0.599 | – | 8.92
x1 = 0.6022 | 0.459 | –
x1 = 0.701 | – | 14.91
x1 = 0.7021 | 0.427 | –
x1 = 0.7971 | 0.387 | –
x1 = 0.802 | – | 24.3
x1 = 0.9002 | 0.341 | –
x1 = 0.903 | – | 38.6
x2 = 0.003 | – | 58.7

CCCCCCCCCCCCCC[n+]1ccccc1.O=C([O-])C(O)c1ccccc1 + CC(C)C[C@H](N)C(=O)O + O
electrical conductivity [S/m], 101 kPa
Settings | 293.15 K | 298.15 K | 303.15 K | 308.15 K | 313.15 K
x1 = 4.89e-06, x2 = 0.0009002 | 0.00294 | 0.00331 | 0.00369 | 0.0041 | 0.0045
x1 = 5.65e-06, x2 = 0.001799 | 0.00333 | 0.00365 | 0.004 | 0.00436 | 0.0047
x1 = 6.85e-06, x2 = 0 | 0.00248 | 0.00278 | 0.00309 | 0.0034 | 0.0037
x1 = 1.069e-05, x2 = 0.0009002 | 0.00459 | 0.0052 | 0.00582 | 0.0064 | 0.0071
x1 = 1.13e-05, x2 = 0.001799 | 0.00474 | 0.00522 | 0.00572 | 0.0065 | 0.0071
x1 = 1.424e-05, x2 = 0 | 0.00472 | 0.00529 | 0.00587 | 0.0065 | 0.0071
x1 = 1.54e-05, x2 = 0.0009002 | 0.0059 | 0.00666 | 0.0074 | 0.0083 | 0.0091
x1 = 1.695e-05, x2 = 0.001799 | 0.00622 | 0.00689 | 0.0075 | 0.0086 | 0.0093
x1 = 2.084e-05, x2 = 0.0009002 | 0.00743 | 0.0084 | 0.0093 | 0.0104 | 0.0114
x1 = 2.126e-05, x2 = 0 | 0.00671 | 0.0076 | 0.0084 | 0.0093 | 0.0101
x1 = 2.205e-05, x2 = 0.001799 | 0.0077 | 0.0086 | 0.0094 | 0.0106 | 0.0116
x1 = 2.519e-05, x2 = 0.0009002 | 0.0086 | 0.0097 | 0.0107 | 0.012 | 0.0132
x1 = 2.733e-05, x2 = 0.001799 | 0.0091 | 0.0102 | 0.0111 | 0.0125 | 0.0137
x1 = 2.811e-05, x2 = 0 | 0.0086 | 0.0097 | 0.0108 | 0.0122 | 0.0131
x1 = 2.972e-05, x2 = 0.0009002 | 0.0098 | 0.0111 | 0.0124 | 0.0138 | 0.0152
x1 = 3.28e-05, x2 = 0.001799 | 0.0103 | 0.0116 | 0.0129 | 0.0144 | 0.0158
x1 = 3.46e-05, x2 = 0 | 0.0103 | 0.0116 | 0.0129 | 0.0145 | 0.0157
x1 = 3.552e-05, x2 = 0.0009002 | 0.0112 | 0.0126 | 0.0141 | 0.0157 | 0.0174
x1 = 3.863e-05, x2 = 0.001799 | 0.0115 | 0.0129 | 0.0144 | 0.016 | 0.0177
x1 = 4.108e-05, x2 = 0 | 0.0117 | 0.0131 | 0.0146 | 0.0161 | 0.0179
x1 = 4.186e-05, x2 = 0.0009001 | 0.0124 | 0.014 | 0.0157 | 0.0175 | 0.0194
x1 = 4.41e-05, x2 = 0.001799 | 0.0124 | 0.0138 | 0.0155 | 0.0172 | 0.0191
x1 = 4.811e-05, x2 = 0 | 0.0129 | 0.0144 | 0.0161 | 0.0179 | 0.0198
x1 = 4.838e-05, x2 = 0.0009001 | 0.0134 | 0.0151 | 0.017 | 0.0189 | 0.0211
x1 = 5.139e-05, x2 = 0.001799 | 0.0135 | 0.0152 | 0.0168 | 0.019 | 0.021
x1 = 5.388e-05, x2 = 0 | 0.0137 | 0.0154 | 0.0172 | 0.0191 | 0.0211
x1 = 5.509e-05, x2 = 0.0009001 | 0.0144 | 0.0162 | 0.018 | 0.0203 | 0.0225
x1 = 5.868e-05, x2 = 0.001799 | 0.0146 | 0.0162 | 0.018 | 0.0203 | 0.0225
x1 = 5.982e-05, x2 = 0 | 0.0145 | 0.0163 | 0.0182 | 0.0202 | 0.0224
x1 = 6.179e-05, x2 = 0.0009001 | 0.0152 | 0.0172 | 0.0192 | 0.0215 | 0.0239
x1 = 6.559e-05, x2 = 0 | 0.0153 | 0.0172 | 0.0192 | 0.0213 | 0.0236
x1 = 6.56e-05, x2 = 0.001799 | 0.0153 | 0.0171 | 0.0192 | 0.0216 | 0.0239
x1 = 6.813e-05, x2 = 0.0009001 | 0.0161 | 0.0181 | 0.0203 | 0.0227 | 0.0252
x1 = 7.081e-05, x2 = 0 | 0.016 | 0.018 | 0.02 | 0.0223 | 0.0246
x1 = 7.216e-05, x2 = 0.001799 | 0.0161 | 0.0181 | 0.0203 | 0.0227 | 0.0252
x1 = 7.484e-05, x2 = 0.0009001 | 0.0169 | 0.0191 | 0.0214 | 0.0239 | 0.0266
x1 = 7.604e-05, x2 = 0 | 0.0167 | 0.0187 | 0.0209 | 0.0232 | 0.0258
x1 = 7.908e-05, x2 = 0.001799 | 0.0169 | 0.019 | 0.0214 | 0.0238 | 0.0265
x1 = 8.072e-05, x2 = 0 | 0.0173 | 0.0194 | 0.0217 | 0.0241 | 0.0266
